Tests used:
U138MG = assay: Inhibition of PI3K in human U138MG cells assessed as decrease in phosphorylated AKT level by western blot analysis; assay type: cell-based
Plasma [1] = assay: Plasma concentration in human at 2 g, po; assay type: ADME
[2] = Drug uptake in human serum at 4 g/day, po administered for 3 months; assay type: ADME, organism-based; details: read-out: Drug uptake
[3] = Drug uptake in human serum at 6 g/day, po administered for 3 months; assay type: ADME, organism-based; details: read-out: Drug uptake
[4] = Drug uptake in human serum at 8 g/day, po administered for 3 months; assay type: ADME, organism-based; details: read-out: Drug uptake
[5] = Cmax in human at 10 g, po administered as single dose; assay type: ADME, organism-based; parameters: dose 10 g, route oral; details: in vivo
[6] = Cmax in human at 12 g, po administered as single dose; assay type: ADME, organism-based; parameters: dose 12 g, route oral; details: in vivo
[7] = Tmax in human at 10 g, po administered as single dose; assay type: ADME, organism-based; details: in vivo
[8] = Half life in human at 10 g, po administered as single dose; assay type: ADME, organism-based; details: in vivo
Homo sapiens = assay: Drug metabolism in human assessed as ratio of glucuronide to sulfate at 10 and 12 g, po administered as single dose; assay type: ADME, organism-based; details: in vivo
[9] = Plasma concentration in human at 3.6 g/day, po measured after 0.5 and 1 hr; assay type: ADME, organism-based
[10] = Drug excretion in human urine at 3.6 g/day, po; assay type: ADME, tissue-based
[11] = Drug uptake in human normal colorectal tissue at 3.6 g/day, po; assay type: ADME
[12] = Drug uptake in human malignant colorectal tissue at 3.6 g/day, po; assay type: ADME
[13] = Tmax in human at 12 g, po administered as single dose; assay type: ADME, organism-based; details: in vivo
[14] = Half life in human at 12 g, po administered as single dose; assay type: ADME, organism-based; details: in vivo
Plasma [15] = assay: Drug metabolism in human plasma assessed as compound glucuronide conjugate at 3.6 g/day, po measured after 0.5 and 1 hr; assay type: ADME, organism-based
Plasma [16] = assay: Drug metabolism in human plasma assessed as compound sulfate conjugate at 3.6 g/day, po measured after 0.5 and 1 hr; assay type: ADME, organism-based
[17] = Drug metabolism in human urine assessed as compound glucuronide conjugate at 3.6 g/day, po measured after 0.5 and 1 hr; assay type: ADME, organism-based; details: in vivo
[18] = Drug metabolism in human urine assessed as compound sulfate conjugate at 3.6 g/day, po measured after 0.5 and 1 hr; assay type: ADME, organism-based; details: in vivo

Cp (Plasma [1]): 10 ng/mL | concentration at 3 months [2]: 510 nM | concentration at 3 months [3]: 630 nM | concentration at 3 months [4]: 1770 nM | Cmax [5]: 2300 ng/mL | Cmax [6]: 1730 ng/mL | Tmax [7]: 3.29 h | half-life [8]: 6.77 h | Ratio (Homo sapiens): 1.92 | concentration at 1 h [9]: 11.1 nM | Drug excretion [10]: 0.1 µmol/L | Drug uptake [11]: 12.7 nmol/g | Drug uptake [12]: 7.7 nmol/g | Tmax [13]: 3.29 h | half-life [14]: 6.77 h | Drug metabolism (Plasma [15]): 15.8 nmol/L | Drug metabolism (Plasma [16]): 8.9 nmol/L | Drug metabolism [17]: 210 nmol/L | Drug metabolism [18]: 19 nmol/L
Compound: COc1cc(/C=C/C(=O)CC(=O)/C=C/c2ccc(O)c(OC)c2)ccc1O [CURCUMIN]
inhibition (U138MG): 80%

Reference: ChEMBL document CHEMBL3763013, “Prospective of curcumin, a pleiotropic signalling molecule from Curcuma longa in the treatment of Glioblastoma” (Eur J Med Chem, 2016)
